The record followed here is patent US7531320B2, “Modulation of β-catenin/TCF-activated transcription” (priority 2003, dated 2009).

In the experiment the test system is hnkd. In words: Real Time RT-PCR in SW480 cells, hnkd. It is filed as cell-based, human. Conditions: 25 μM; for ΔCT hnkd: relative to β-actin. As to the method: The RNeasy Midi Kit (Qiagen) was used for RNA extraction and Real Time RT-PCR was performed according to the protocol provided with the SYBR Green PCR Master Mix Kit (Perkin Elmer Biosystems, Shelton, Conn.). The primers used for cyclin D1, axin2, hnkd, c-myc, c-jun, and fra-1 amplifications were: cyclin D1 forward primer:5′-[…]-CCTGCTG-3′ (SEQ ID NO: 32) reverse primer: 5′-[…]-3′ (SEQ ID NO: 33) leading to a product size of approximately 300 bp; axin2 forward primer: 5′-[…] GGAAA-CT-3′ (SEQ ID NO: 34) and reverse primer: 5′-[…]-GAGA-3′ (SEQ ID NO: 35); hnkd forward primer: 5′-[…] TTGCGT-3′ (SEQ ID NO: 36) and the reverse primer: 5′-[…] ACGT-3′ (SEQ ID NO: 37); c-myc forward primer: 5′-GAA-[…] CTGC-3′ (SEQ ID NO: 38) and reverse primer: 5′-[…]-G-3′ (SEQ ID NO: 39); c-jun forward primer: 5′-[…]-3′ (SEQ ID NO: 40) and reverse primer: 5′-[…]-3′ (SEQ ID NO: 41); fra-1 forward primer: 5′-ACC-[…]-[…]-3′ (SEQ ID NO: 42) and reverse primer: 5′-[…]-TT-3′ (SEQ ID NO: 43). β-actin was used for normalization. […]
1 μg of mRNA, for each time point, was subjected to Real Time RT-PCR. Expression level of endogenous cyclin D1, c-myc, fibronectin, hnkd, axin2, c-jun, and BMP-4 were measured relative to β-actin. Quantitation of The ΔCycle of Threshold (CT) values was determined by subtracting the average values of each set by the corresponding average values obtained for β-actin. […]
The cyclin D1 gene is inappropriately expressed in many different tumor types, and is known to be a direct target of the Wnt/β-catenin pathway (Shtutman et al., “The cyclin D1 gene is a target of the beta-catenin/LEF-1 pathway,” Proc. Natl. Acad. Sci. USA 96:5522-27 (1999); Tetsu et al., “Beta-catenin regulates expression of cyclin D1 in colon carcinoma cells,” Nature 398:422-26 (1999)). […] Expression level of endogenous cyclin D1, c-myc, fibronectin, hnkd, axin2, c-jun, and BMP-4 were measured relative to β-actin. Quantitation of The ΔCycle of Threshold (CT) values was determined by subtracting the average values of each set by the corresponding average values obtained for β-actin. […]
(In general: Quantitative PCR measures a nucleic acid by following its amplification.)

Take `O=C1C(Cc2ccc(O)cc2)N2C(=O)CCN(C(=O)NCc3ccccc3)C2CN1Cc1cccc2ccccc12` (stereo not drawn) [COMPOUND 1]: the “mRNA hnkd (direction)” value is “↓”. Where the note is “4 hours”, this compound registered a ΔCT hnkd of 0.3. Moreover, the ΔCT hnkd (8 hours) came to 1.0.
